Experiments:
[1] = Ex vivo biodistribution studies; conditions: SD rats; for Biodistribution, radioactivity in Blood / Biodistribution, radioactivity in Brain / Biodistribution, radioactivity in Heart / Biodistribution, radioactivity in Intestine / Biodistribution, radioactivity in Liver / Biodistribution, radioactivity in Lung / Biodistribution, radioactivity in Muscle / Biodistribution, radioactivity in Pancreas / Biodistribution, radioactivity in Spleen / Biodistribution, radioactivity in Kidney: mean ± SEM, n = 4
From the text: Major organs and tissues (blood, heart, lung, liver, pancreas, spleen, kidney, intestine, muscle, and brain), were promptly excised, harvested, and weighed. Radioactivity was counted using a γ-counter and expressed as a percentage of the injected dose per gram of wet tissue (%ID/g). All radioactivity measurements were corrected for decay.

[2] = PET, rats
Procedure: Emission scans were acquired in three-dimensional list mode with an energy window of 350–650 keV under isoflurane anesthesia, from 0 to 60 min after radioprobe administration. All list-mode acquisition data were sorted into three-dimensional sinograms, which were then Fourier-rebinned into two-dimensional sonograms (frames × min: 4 × 1, 8 × 2, 8 × 5), and corrections for scanner dead time, randoms, and decay of the injected radioprobe. Dynamic images were reconstructed with filtered back-projection using a Hanning filter and a Nyquist cut-off of 0.5 cycles/pixel. Immediately after completion of PET scans, contrast-enhanced CT scans were performed in the rats by using the small-animal CT system (R_mCT2; Rigaku, Tokyo) after injection of 1 mL of non-ionic contrast medium (Iopamiron 370, Bayer, Osaka). The scan conditions included radiation parameters of 200 μA and 90 kV, FOV of 60 mm, and acquisition time of 34 s. CT images were collected, reconstructed, and observed using I-View-R software (Rigaku, The Woodlands, TX). Averaged CT attenuation images and dynamic PET images were reconstructed and fused using the Siemens Inveon Research Workplace (IRW) 4.0 software.
Regions of interest (ROI) in major organs and tissues were drawn in the PET/CT fusion images by manual outlining the organs and tissues in the CT images throughout the image slices by using IRW 4.0 software. The average radioactivity concentration was obtained from mean pixel values in the ROI volume. Regional uptake of radioactivity was decay-corrected to the injection time and expressed as the standardized uptake value (SUV), normalized for injected radioactivity and body weight. SUV was calculated as SUV = (radioactivity per cubic centimeter tissue/injected radioactivity) × body weight in grams. TACs of the radioprobes in individual organ and tissue were determined. Values of area under time-activity curves (AUC2–60 min, SUV × min) were calculated from 2 to 60 min post-injection to minimize the early perfusion effects.

[3] = In vitro stability assay in rat plasma; assay type: in vitro ADME; conditions: 37 °C, 90 min incubation, HPLC analysis
Procedure: To determine the in vitro property of the two newly-developed radioprobes, we performed plasma stability studies by HPLC analysis at 37 °C for 90 min. […] More than 95% of ^11C-L-1Mtrp and ^11C-D-1Mtrp remained intact and no detectable metabolites were found at least 90 min after plasma incubation in vitro.
^11C-L-1MTrp and ^11C-D-1MTrp (70–74 MBq, 0.4−0.6 nmol) was dissolved in 2 mL of freshly isolated rat plasma and incubated at 37 °C for 90 min. After 0, 30, 60 and 90 min, an aliquot of 300 μL incubated mixture was taken, proteins in plasma were precipitated with equal volumes of 1 M HClO4 solution, followed by centrifugation at 15000 rpm for 2 min at 4 °C. The supernatant was collected and analyzed by HPLC (Capcell Pack UG80 column, 4.6 mm i.d. × 250 mm) with […] phosphate buffer/CH3CN (8.5/1.5, v/v) at a flow rate of 1 mL/min.

[4] = Ex vivo metabolite studies; assay type: in vivo; conditions: SD rats; for Ex vivo metabolite analysis, % of tailored L- and D-1MTrp entity in Brain / Ex vivo metabolite analysis, % of tailored L- and D-1MTrp entity in Pancreas / Ex vivo metabolite analysis, % of tailored L- and D-1MTrp entity in Plasma: HPLC, mean ± SEM, n = 4
Procedure: To validate the derivation of radioactivity into the relevant organs and tissues, we assessed the metabolites of both radiolabelled isomers in the blood, brain, and pancreas of rats. […] Few radioactive metabolites were detected in these three tissues at 15 and 60 min after ^11C-L-1MTrp and ^11C-D-1MTrp injection.
SD rats were injected with ^11C-L-1MTrp or ^11C-D-1MTrp (70–74 MBq, 0.4–0.6 nmol) via a lateral tail vein. The animals were sacrificed by cervical dislocation at 15 and 60 min after the injection. Blood was collected and centrifuged at 15000 rpm for 2 min at 4 °C to separate the plasma. Brain and pancreas were rapidly removed, then homogenized in equal volumes of 1 M HClO4 solution with a Silent Crusher S homogenizer (Heidolph Instruments). Plasma and homogenates of brain and pancreas from rats were deproteinized and then analyzed by HPLC as described in the stability assay in vitro.

[5] = 60 min after injection, mean ± SEM, four rats

[11CH3]n1cc(C[C@@H](N)C(=O)O)c2ccccc21 [^11C-D-1MTrp, 1-N-^11C-methyl-D-tryptophan]
Biodistribution, radioactivity in Blood ([1]; 1 min after injection): 1.47 ± 0.02 %ID/g tissue | Biodistribution, radioactivity in Brain ([1]; 1 min after injection): 0.04 ± 0.00 %ID/g tissue | Biodistribution, radioactivity in Heart ([1]; 1 min after injection): 0.58 ± 0.02 %ID/g tissue | Biodistribution, radioactivity in Intestine ([1]; 1 min after injection): 0.93 ± 0.02 %ID/g tissue | Biodistribution, radioactivity in Liver ([1]; 1 min after injection): 1.24 ± 0.03 %ID/g tissue | Biodistribution, radioactivity in Lung ([1]; 1 min after injection): 0.79 ± 0.03 %ID/g tissue | Biodistribution, radioactivity in Muscle ([1]; 1 min after injection): 0.12 ± 0.00 %ID/g tissue | Biodistribution, radioactivity in Pancreas ([1]; 1 min after injection): 0.76 ± 0.07 %ID/g tissue | Biodistribution, radioactivity in Spleen ([1]; 1 min after injection): 0.62 ± 0.02 %ID/g tissue | Biodistribution, radioactivity in Blood ([1]; 5 min after injection): 0.79 ± 0.03 %ID/g tissue | Biodistribution, radioactivity in Brain ([1]; 5 min after injection): 0.05 ± 0.01 %ID/g tissue | Biodistribution, radioactivity in Heart ([1]; 5 min after injection): 0.55 ± 0.02 %ID/g tissue | Biodistribution, radioactivity in Intestine ([1]; 5 min after injection): 0.68 ± 0.02 %ID/g tissue | Biodistribution, radioactivity in Liver ([1]; 5 min after injection): 0.97 ± 0.02 %ID/g tissue | Biodistribution, radioactivity in Lung ([1]; 5 min after injection): 0.60 ± 0.02 %ID/g tissue | Biodistribution, radioactivity in Muscle ([1]; 5 min after injection): 0.26 ± 0.01 %ID/g tissue | Biodistribution, radioactivity in Pancreas ([1]; 5 min after injection): 1.03 ± 0.15 %ID/g tissue | Biodistribution, radioactivity in Spleen ([1]; 5 min after injection): 0.51 ± 0.02 %ID/g tissue | Biodistribution, radioactivity in Blood ([1]; 15 min after injection): 0.49 ± 0.01 %ID/g tissue | Biodistribution, radioactivity in Brain ([1]; 15 min after injection): 0.08 ± 0.00 %ID/g tissue | Biodistribution, radioactivity in Heart ([1]; 15 min after injection): 0.52 ± 0.02 %ID/g tissue | Biodistribution, radioactivity in Intestine ([1]; 15 min after injection): 0.53 ± 0.00 %ID/g tissue | Biodistribution, radioactivity in Kidney ([1]; 15 min after injection): 3.66 ± 0.15 %ID/g tissue | Biodistribution, radioactivity in Liver ([1]; 15 min after injection): 0.64 ± 0.01 %ID/g tissue | Biodistribution, radioactivity in Lung ([1]; 15 min after injection): 0.46 ± 0.02 %ID/g tissue | Biodistribution, radioactivity in Muscle ([1]; 15 min after injection): 0.35 ± 0.01 %ID/g tissue | Biodistribution, radioactivity in Pancreas ([1]; 15 min after injection): 1.01 ± 0.06 %ID/g tissue | Biodistribution, radioactivity in Spleen ([1]; 15 min after injection): 0.48 ± 0.01 %ID/g tissue | Biodistribution, radioactivity in Blood ([1]; 30 min after injection): 0.40 ± 0.01 %ID/g tissue | Biodistribution, radioactivity in Brain ([1]; 30 min after injection): 0.11 ± 0.00 %ID/g tissue | Biodistribution, radioactivity in Heart ([1]; 30 min after injection): 0.42 ± 0.02 %ID/g tissue | Biodistribution, radioactivity in Intestine ([1]; 30 min after injection): 0.40 ± 0.01 %ID/g tissue | Biodistribution, radioactivity in Kidney ([1]; 30 min after injection): 2.12 ± 0.16 %ID/g tissue | Biodistribution, radioactivity in Liver ([1]; 30 min after injection): 0.47 ± 0.01 %ID/g tissue | Biodistribution, radioactivity in Lung ([1]; 30 min after injection): 0.37 ± 0.01 %ID/g tissue | Biodistribution, radioactivity in Muscle ([1]; 30 min after injection): 0.38 ± 0.03 %ID/g tissue | Biodistribution, radioactivity in Pancreas ([1]; 30 min after injection): 1.21 ± 0.05 %ID/g tissue | Biodistribution, radioactivity in Spleen ([1]; 30 min after injection): 0.40 ± 0.02 %ID/g tissue | Biodistribution, radioactivity in Blood ([1]; 60 min after injection): 0.32 ± 0.01 %ID/g tissue | Biodistribution, radioactivity in Brain ([1]; 60 min after injection): 0.15 ± 0.01 %ID/g tissue | Biodistribution, radioactivity in Heart ([1]; 60 min after injection): 0.30 ± 0.01 %ID/g tissue | Biodistribution, radioactivity in Intestine ([1]; 60 min after injection): 0.32 ± 0.01 %ID/g tissue | Biodistribution, radioactivity in Kidney ([1]; 60 min after injection): 1.16 ± 0.03 %ID/g tissue | Biodistribution, radioactivity in Liver ([1]; 60 min after injection): 0.37 ± 0.01 %ID/g tissue | Biodistribution, radioactivity in Lung ([1]; 60 min after injection): 0.28 ± 0.01 %ID/g tissue | Biodistribution, radioactivity in Muscle ([1]; 60 min after injection): 0.33 ± 0.01 %ID/g tissue | Biodistribution, radioactivity in Pancreas ([1]; 60 min after injection): 1.03 ± 0.06 %ID/g tissue | Biodistribution, radioactivity in Spleen ([1]; 60 min after injection): 0.32 ± 0.01 %ID/g tissue | Measured uptake in organs other than kidneys and pancreas ([1]; 60 min after radioprobe injection, span over organs): 0.15−0.37 % ID/g | SUV in the kidney [2, 5]: 1.79 ± 0.07 | SUV in the other organs (other than kidneys) ([2]; 60 min after injection, span over organs): 0.20−0.61 | Maximum accumulation (SUV) in the kidneys ([2]; within 5 min after administration): 6.03 ± 0.43 | Fraction remaining intact in rat plasma [3]: More than 95% | Radioactivity in the brain, pancreas, and blood associated with L- and D-1MTrp ([4]; 15 and 60 min after injection): more than 94% | Ex vivo metabolite analysis, % of tailored L- and D-1MTrp entity in Brain ([4]; 15 min after injection): 95.06 ± 0.38% | Ex vivo metabolite analysis, % of tailored L- and D-1MTrp entity in Pancreas ([4]; 15 min after injection): 94.08 ± 0.51% | Ex vivo metabolite analysis, % of tailored L- and D-1MTrp entity in Plasma ([4]; 15 min after injection): 94.45 ± 0.03% | Ex vivo metabolite analysis, % of tailored L- and D-1MTrp entity in Brain ([4]; 60 min after injection): 98.16 ± 0.47% | Ex vivo metabolite analysis, % of tailored L- and D-1MTrp entity in Pancreas ([4]; 60 min after injection): 96.31 ± 0.48% | Ex vivo metabolite analysis, % of tailored L- and D-1MTrp entity in Plasma ([4]; 60 min after injection): 98.81 ± 0.25%

Cn1cc(C[C@H](N)C(=O)O)c2ccccc21 [L-1MTrp, 1-Methyl-L-tryptophan, reference compound]
Biodistribution, radioactivity in Pancreas ([1]; 60 min after injection): 2.27 %ID/g tissue | SUV in the pancreas [2, 5]: 2.28
